Reference: the Deep4Chem optical property database

Experiment: solvent given as SMILES

For COc1ccc(N(c2ccccc2)c2ccc3ccc4c(N(c5ccccc5)c5ccc(OC)cc5)ccc5ccc2c3c54)cc1, the emission maximum (in ClCCl) was 513 nm.

NC(=O)Cc1cccc2ccccc12 showed an emission maximum (in C1COCCO1) of 326 nm, an emission maximum (in CC#N) of 325 nm and an emission maximum (in CCO) of 325 nm. The emission maximum (in ClC(Cl)Cl) was 325 nm, the emission maximum (in O) was 324 nm and the emission maximum (in OCCO) was 325 nm. The emission maximum (in [2H]O[2H]) was 324 nm.

In the case of CC(C)(C)NC(=O)c1ccc(-c2cc3ccccc3s2)c2ccc3c4ccccc4c4ccccc4c3c12, the emission maximum (in ClCCl) is reported as 441 nm.

Work on CCCCCCCCCCCCCCCCCCOC(=O)/C=C/C1=CC2=C(c3c(C)cc(C)cc3C)c3cccn3[B-](F)(F)[N+]2=C1 yielded an emission maximum (in ClCCl) of 569 nm.

Cc1ccc(-c2c3nc(c(-c4ccc(C)cc4)c4ccc([nH]4)c(-c4ccc(OC(=O)C(C)c5cccc(C(=O)c6ccccc6)c5)cc4)c4nc(c(-c5ccc(C)cc5)c5ccc2[nH]5)C=C4)C=C3)cc1 (stereo not drawn) showed an emission maximum (in ClCCl) of 652 nm.

In the case of C=CC1CN2CCC1CC2[C@@H](OCc1ccccc1)c1ccnc2ccc(O)cc12 (stereo partly drawn), the emission maximum (in C1CCOC1) is reported as 358 nm, the emission maximum (in CC#N) is reported as 362 nm and the emission maximum (in CCCC#N) is reported as 361 nm. For the same molecule, the emission maximum (in Cc1ccccc1) was 355 nm and the emission maximum (in ClCCl) was 363 nm.

Molecule N#Cc1cccc(-c2nc(-c3ccccc3)c(-c3ccccc3)[nH]2)c1 has an emission maximum (in CO) of 440 nm.

CCN(CC)c1ccc2cc(-c3cn4ccccc4n3)c(=O)oc2c1 gave an emission maximum (in C1CCOC1) of 474 nm, an emission maximum (in CC#N) of 475 nm and an emission maximum (in CCO) of 482 nm. For the same molecule, the emission maximum (in CCOC(C)=O) was 468 nm, the emission maximum (in CN(C)C=O) was 477 nm and the emission maximum (in CO) was 485 nm. It also gave an emission maximum (in CS(C)=O) of 482 nm, an emission maximum (in Cc1ccccc1) of 469 nm and an emission maximum (in ClC(Cl)Cl) of 471 nm. For the same molecule, the emission maximum (in ClCCl) was 478 nm.

Work on COc1ccc2c(c1)c(C#N)c(C#N)c1cc(OC)ccc12 yielded an emission maximum (in ClC(Cl)Cl) of 440 nm.

For Cn1c(/C=C/c2ccc(/C=C/c3nc4ccccc4[nH]3)cc2)[n+](C)c2ccccc21, the emission maximum (in C1CCOC1) was 576 nm, the emission maximum (in CC#N) was 576 nm and the emission maximum (in CC(C)=O) was 580 nm. It also gave an emission maximum (in CN(C)C=O) of 582 nm, an emission maximum (in CO) of 567 nm and an emission maximum (in CS(C)=O) of 584 nm. For the same molecule, the emission maximum (in O) was 574 nm.

Work on COC(=O)c1[nH]c(-c2ccc([N+](=O)[O-])cc2)c2nnc3ccc(OC)cc3c12 yielded an emission maximum (in ClCCl) of 549 nm.

c1ccc(N(c2ccccc2)c2ccc(-c3ccc(-c4cc(-c5ccccn5)nc(-c5ccccn5)c4)cc3)cc2)cc1 showed an emission maximum (in ClCCl) of 489 nm.

In the case of CCCN1/C(=C/C=C(/C=C/C2=[N+](CCC)c3ccccc3C2(C)C)c2ccncc2)C(C)(C)c2ccccc21, the emission maximum (in CO) is reported as 648 nm, the emission maximum (in CS(C)=O) is reported as 655 nm and the emission maximum (in O) is reported as 658 nm.

In the case of CCN(CC)c1ccc2c(c1)oc(=O)c1cc3cnn(-c4ccccc4)c3nc12, the emission maximum (in ClCCl) is reported as 501 nm.

Cc1nc2ccc(/C=C/c3ccc(N(C)C)cc3)cc2nc1-c1ccccc1 gave an emission maximum (in C1COCCO1) of 526 nm, an emission maximum (in CC#N) of 641 nm and an emission maximum (in ClCCl) of 590 nm.

In the case of Cc1ccccc1[B-]1(c2ccccc2C)n2nc(C(F)(F)F)cc2-c2c3ccccc3cc[n+]21, the emission maximum (in C1CCCCC1) is reported as 414 nm, the emission maximum (in Cc1ccccc1) is reported as 414 nm and the emission maximum (in ClCCl) is reported as 412 nm.

Molecule Cc1ccc2c3ccc(C)cc3c3cc4c(C)cc(=O)oc4cc3c2c1 has an emission maximum (in ClC(Cl)Cl) of 422 nm.

In the case of CCCCCCCCCCCCn1c(-c2cc(-c3nc4ccc(C)cc4n3CCCCCCCCCCCC)cc(-c3nc4ccc(C)cc4n3CCCCCCCCCCCC)c2)nc2ccc(C)cc21, the emission maximum (in C1CCOC1) is reported as 375.8 nm.

CCOC(=O)c1cc(C(=O)OCC)c2cc(NC)ccc2n1 showed an emission maximum (in CCO) of 539 nm.

For CC(C)(C)c1ccc2c(c1)c1cc(C(C)(C)C)ccc1n2-c1ccc(C#Cc2ccc(C=O)cc2)cc1, the emission maximum (in ClCCl) was 528 nm.

In the case of CC1(C)Nc2cc3nc4cc(Cl)c(Cl)cc4nc3cc2N1, the emission maximum (in CCO) is reported as 506 nm.

For C(=C\c1ccc(/C=C/c2ccc(N(c3ccccc3)c3ccccc3)cc2)cc1)/c1ccc(/C=C/c2ccc(N(c3ccccc3)c3ccccc3)cc2)cc1, the emission maximum (in ClCCl) was 510 nm.

With C/C(=N\Nc1ccc(C#N)cc1)c1cccc(/C(C)=N/Nc2ccc(C#N)cc2)c1 the emission maximum (in CC#N) was 492 nm, the emission maximum (in CCCCCC) was 467 nm and the emission maximum (in CO) was 525 nm. It also gave an emission maximum (in CS(C)=O) of 504 nm and an emission maximum (in ClC(Cl)Cl) of 476 nm.
